This note sets out measurements from publication PMC3081360 (Journal of medicinal chemistry, 2011).

brain NOP receptors (hypothalamus vs striatum), sequence (P35370 whole entry): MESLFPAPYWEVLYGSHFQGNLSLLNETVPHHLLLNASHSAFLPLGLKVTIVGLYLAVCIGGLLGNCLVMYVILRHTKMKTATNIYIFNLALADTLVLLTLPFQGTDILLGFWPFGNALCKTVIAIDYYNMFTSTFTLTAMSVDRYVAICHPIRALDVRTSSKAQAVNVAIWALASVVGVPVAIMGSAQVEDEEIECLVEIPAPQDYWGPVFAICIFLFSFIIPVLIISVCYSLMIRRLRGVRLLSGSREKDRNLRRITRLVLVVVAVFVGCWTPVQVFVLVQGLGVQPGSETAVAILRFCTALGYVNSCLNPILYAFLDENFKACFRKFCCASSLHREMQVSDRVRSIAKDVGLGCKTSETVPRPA

This data set concerns the target brain NOP receptors (hypothalamus vs striatum) (Rattus norvegicus, UniProt P35370). Kind of data set: Ligand brain uptake in rat, ex vivo LC-MS/MS. As to conditions: 3 μg/kg i.v., non-anesthetized, 10 min stated for (S)-10a.
`CC(C)N(C)C(=O)[C@@H](Cc1ccccc1F)CN1CCC2(CC1)OCCc1cc(F)sc12` [(S)-10a, (2S)-2-[(2-Fluorophenyl)methyl]-3-(2-fluorospiro[4,5-dihydrothieno[2,3-c]pyran-7,4'-piperidine]-1'-yl)-N-isopropyl-N-methyl-propanamide] displayed a brain uptake of 453 % SUV. `CNC(=O)[C@@H](Cc1ccccc1Cl)CN1CCC2(CC1)OCCc1cc(F)sc12` [(S)-10b, (2S)-2-[(2-Chlorophenyl)methyl]-3-(2-fluorospiro[4,5-dihydrothieno[2,3-c]pyran-7,4'-piperidine]-1'-yl)-N-methyl-propanamide]: the brain uptake was ~ 280 % SUV.

For the compound `CNC(=O)[C@@H](Cc1ccccc1F)CN1CCC2(CC1)OCCc1cc(F)sc12` [(S)-10c, (2S)-2-[(2-Fluorophenyl)methyl]-3-(2-fluorospiro[4,5-dihydrothieno[2,3-c]pyran-7,4'-piperidine]-1'-yl)-N-methyl-propanamide], the brain uptake is recorded as ~ 280 % SUV.
